Measurements reported in patent publication US7799768B2, “Polymorphs of 3-O-(3′,3′-dimethylsuccinyl)betulinic acid di-N-methyl-D-glucamine” (priority 2005, dated 2010).
In brackets after ≈: the same amount, converted by molar mass.

Legend:
[1] = relative bioavailability of oral formulations in rats (plasma DSB free acid); assay type: in vivo, Sprague Dawley rats; conditions: single oral 25 mg/kg; for Cmax: male, po
Description: The following study was conducted to compare the relative bioavailability of oral formulations prepared with DSB•2NMG Form I and amorphous DSB•2NMG.
Groups of four male Sprague Dawley rats with surgically implanted jugular cannulas were given a single oral 25 mg/kg dose of DSB•2NMG (Form I or amorphous) in one of six formulations: • Group 1: 10% hydroxypropyl-β-cyclodextrin solution of amorphous DSB•2NMG; • Group 2: 10% hydroxypropyl-β-cyclodextrin solution of DSB•2NMG Form I; • Group 3: Suspension of DSB•2NMG Form I in 0.5% carboxymethylcellulose; • Group 4: Solution of DSB•2NMG Form I in 1% ethanol/10% polyethylene glycol 400/89% water; • Group 5: Solution of DSB•2NMG Form I in 10% propylene glycol/90% water; and • Group 6: Solution of DSB•2NMG Form I in water.

[2] = physchem; conditions: 25 °C, organic solvent or mixture, approximate solubility
[3] = male rats, carboxymethylcellulose, ethanol/PEG 400/water, propylene glycol/water and water formulations

With `C=C(C)[C@@H]1CC[C@]2(C(=O)O)CC[C@]3(C)[C@H](CC[C@@H]4[C@@]5(C)CC[C@H](OC(=O)CC(C)(C)C(=O)O)C(C)(C)[C@@H]5CC[C@]43C)[C@@H]12` [amorphous DSB•2NMG, 3-O-(3′,3′-dimethylsuccinyl)betulinic acid di-N-methyl-D-glucamine] the AUC(0-inf) ([1]; Sprague-Dawley, rat, plasma, male rats, 10% hydroxypropyl-β-cyclodextrin solution, average, read-out: area under the plasma concentration-time curve from time zero extrapolated to infinity (AUCINF)) was 21500 ng·h/mL.
For `C=C(C)[C@@H]1CC[C@]2(C(=O)O)CC[C@]3(C)[C@H](CC[C@@H]4[C@@]5(C)CC[C@H](OC(=O)CC(C)(C)C(=O)O)C(C)(C)[C@@H]5CC[C@]43C)[C@@H]12` [DSB•2NMG Form I, 3-O-(3′,3′-dimethylsuccinyl)betulinic acid di-N-methyl-D-glucamine], the “area under the plasma concentration-time curve from time zero extrapolated to infinity (AUCINF)” value ([1]; male rats, 10% hydroxypropyl-β-cyclodextrin solution, average, 25 mg/kg) was 23440 ng·h/mL, the “exposure to DSB free acid among Form I formulations” value ([1]; male rats, 10% propylene glycol/water vehicle, FIG. 9) was “greatest exposure” and the “AUCINF, times greater than from Form I given in hydroxypropyl-β-cyclodextrin” value [1, 3] was 1.5-2 times. For the same compound, the “DSB free acid concentrations versus Form I given in 10% hydroxypropyl-β-cyclodextrin” value [1, 3] was “greater”, the “plasma concentration profile compared to amorphous DSB•2NMG formulation” value ([1]; male rats, hydroxypropyl-cyclodextrin formulation, FIG. 8) was “equivalent plasma concentration profiles” and the Cmax ([1]; Sprague-Dawley, rat, plasma, 25 mg/kg, solution in 1% ethanol/10% polyethylene glycol 400/water, average) was 8490 ng/mL. It also gave a Cmax ([1]; Sprague-Dawley, rat, plasma, 25 mg/kg, solution in 10% propylene glycol/water, average) of 10400 ng/mL, a Cmax ([1]; Sprague-Dawley, rat, plasma, 25 mg/kg, solution in water, average) of 9770 ng/mL and a Cmax ([1]; Sprague-Dawley, rat, plasma, 25 mg/kg, suspension in 0.5% carboxymethylcellulose, average) of 8200 ng/mL. For the same compound, the solubility ([2]; 1-butanol) was less than 3000 µg/mL, the solubility ([2]; 1-propanol) was roughly 5000 µg/mL (≈ 8.55 mM) and the solubility ([2]; 2-butanol) was less than 3000 µg/mL. The solubility ([2]; 2-propanol) was less than 3000 µg/mL, the solubility ([2]; acetone) was less than 3000 µg/mL and the solubility ([2]; dimethyl formamide) was greater than 50000 µg/mL. It also gave a solubility ([2]; ethanol) of roughly 5000 µg/mL (≈ 8.55 mM).
